Reference: ChEMBL document CHEMBL1201862, “PubChem BioAssay data set” (2004)
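Values below derive from 48-hour exposures of cells grown in 96-well plates, with endpoints linearly interpolated between the two concentrations bracketing the appropriate inhibition level. GI50: concentration for 50% inhibition of growth.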 Calls of active or inactive are those of the source. Cut-off read from the data, not from the text of the source: active = GI50 up to about 1.1 µM and inactive = higher.

Experiments:
Experiment in all cases: NCI-60 cell line screen, 48 h
A498 = test system: A498
A549 = test system: A549
CAKI-1 = test system: CAKI-1
HOP-92 = test system: HOP-92
HT-29 = test system: HT-29
IGROV-1 = test system: IGROV-1
KM12 = test system: KM12
MOLT-4 = test system: MOLT-4
OVCAR-3 = test system: OVCAR-3
OVCAR-4 = test system: OVCAR-4
RXF 393 = test system: RXF 393
SF-268 = test system: SF-268
SK-MEL-5 = test system: SK-MEL-5
TK-10 = test system: TK-10
ACHN = test system: ACHN
SR = test system: SR
NCI-H226 = test system: NCI-H226

Measured: GI50

COC(=O)c1c(O)ccc(O)c1C(C(C)=O)C(C)=O
inactive: A498 > 100 µM | A549 > 100 µM | CAKI-1 > 100 µM | HOP-92 > 100 µM | HT-29 > 100 µM | IGROV-1 > 100 µM | KM12 > 100 µM | MOLT-4 > 100 µM | OVCAR-3 > 100 µM | OVCAR-4 > 100 µM | RXF 393 > 100 µM | SF-268 > 100 µM | SK-MEL-5 > 100 µM | TK-10 > 100 µM

NC1C2(CCCCCC2)NC(=O)C12CCCCCC2 (stereo not drawn)
inactive: A498 > 100 µM | A549 > 100 µM | ACHN > 100 µM | CAKI-1 > 100 µM | HOP-92 > 100 µM | HT-29 > 100 µM | IGROV-1 > 100 µM | KM12 > 100 µM | MOLT-4 > 100 µM | OVCAR-3 > 100 µM | OVCAR-4 > 100 µM | RXF 393 > 100 µM | SF-268 > 100 µM | SK-MEL-5 > 100 µM | SR > 100 µM | TK-10 > 100 µM

C[N+]12c3ccccc3O[B-]1(c1ccccc1)Oc1ccccc12 (stereo not drawn)
inactive: A498 > 100 µM | A549 39.4 µM | ACHN 14.8 µM | CAKI-1 63.1 µM | HOP-92 > 100 µM | HT-29 73.5 µM | IGROV-1 25.4 µM | KM12 25.2 µM | MOLT-4 5.74 µM | NCI-H226 32.8 µM | OVCAR-3 31 µM | OVCAR-4 31.6 µM | RXF 393 25.4 µM | SF-268 20.3 µM | SK-MEL-5 36.2 µM | SR 10.9 µM | TK-10 23.5 µM

Cc1ccc(S(=O)(=O)Nc2cccc(C)c2C)cc1
inactive: A498 > 100 µM | A549 59.6 µM | HOP-92 29.5 µM | HT-29 74.1 µM | IGROV-1 82.4 µM | KM12 52.7 µM | MOLT-4 45.5 µM | NCI-H226 56.4 µM | OVCAR-3 34 µM | OVCAR-4 19.5 µM | RXF 393 19 µM | SF-268 86.7 µM | SK-MEL-5 31.2 µM | SR 52.5 µM | TK-10 65.3 µM

Cc1[nH]c2ccccc2c1C(=O)CC1(O)C(=O)Nc2c(Cl)cc(Cl)cc21 (stereo not drawn)
inactive: A498 33 µM | A549 36.1 µM | ACHN 21.9 µM | CAKI-1 40.8 µM | HT-29 54.3 µM | IGROV-1 53.1 µM | KM12 61.9 µM | MOLT-4 22.1 µM | NCI-H226 18.8 µM | OVCAR-3 16.6 µM | OVCAR-4 9.75 µM | RXF 393 22.2 µM | SF-268 25.3 µM | SK-MEL-5 17.2 µM | SR 28.4 µM | TK-10 39.4 µM
